Experimental data as given in patent US20260250318A1, “COMPOSITIONS AND METHODS FOR CROSSING THE BLOOD BRAIN BARRIER” (VOYAGER THERAPEUTICS, INC., priority 2022, published 2026).

Tests used:
brain = test: Matured TTM-001 and TTM-002 variants, NGS enrichment in mouse brain; assay type: in vivo, mice; conditions: relative to AAV9 control
[1] = tested on: brains, heart, liver, muscle, and DRG of the NHPs; test: Maturation of TTM-001 and TTM-002 capsids, NGS enrichment in NHP tissues; assay type: in vivo; conditions: relative to AAV9 control
Method in brief: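 Variants carry mutations within and flanking the loop IV peptide insert: positions 450–466 were triplet-randomized, while positions 449–466 received low-frequency point mutations. The combined pool went into two NHPs, and each peptide was scored by NGS enrichment ratio against AAV9.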

[2] = NGS fold-enrichment, mouse brain
[3] = NGS fold-enrichment of RNA, NHP brain
[4] = NGS fold-enrichment, NHP liver DNA
[5] = NGS fold-enrichment, NHP liver RNA
[6] = NGS fold-enrichment, NHP muscle
[7] = NGS fold-enrichment, brain of mice
[8] = NGS fold-enrichment, DRG of NHPs
[9] = NGS fold-enrichment, RNA, brain of NHPs
[10] = NGS fold-enrichment, heart of NHPs
[11] = NGS fold-enrichment, liver DNA of NHPs
[12] = NGS fold-enrichment, liver RNA of NHPs
[13] = NGS fold-enrichment, muscle of NHPs
[14] = NGS fold-enrichment of matured AAV capsid variants, NHP brain, RNA

Sequence	Fold Enrichment relative to AAV9, Brain (Mouse) (brain; [2])	Fold Enrichment relative to AAV9, Brain (NHP) [1, 3]	Fold Enrichment relative to AAV9, DRG (NHP) ([1]; NGS fold-enrichment, NHP DRG)	Fold Enrichment relative to AAV9, Heart (NHP) ([1]; NGS fold-enrichment, NHP heart)	Fold Enrichment relative to AAV9, Liver DNA (NHP) [1, 4]	Fold Enrichment relative to AAV9, Liver RNA (NHP) [1, 5]	Fold Enrichment relative to AAV9, Muscle (NHP) [1, 6]	Fold Enrichment relative to AAV9, Brain (Mouse) (brain; [7])	Fold Enrichment relative to AAV9, DRG (NHP) [1, 8]	Fold Enrichment relative to AAV9, Brain (NHP) [1, 9]	Fold Enrichment relative to AAV9, Heart (NHP) [1, 10]	Fold Enrichment relative to AAV9, Liver DNA (NHP) [1, 11]	Fold Enrichment relative to AAV9, Liver RNA (NHP) [1, 12]	Fold Enrichment relative to AAV9, Muscle (NHP) [1, 13]	Fold Enrichment relative to AAV9, Brain (Mouse) (brain; mouse brain)	Fold Enrichment relative to AAV9, Brain (NHP) [1, 14]	Fold Enrichment relative to AAV9, DRG (NHP) ([1]; NHP DRG)	Fold Enrichment relative to AAV9, Heart (NHP) ([1]; NHP heart)	Fold Enrichment relative to AAV9, Liver DNA (NHP) ([1]; NHP liver, DNA)	Fold Enrichment relative to AAV9, Liver RNA (NHP) ([1]; NHP liver, RNA)	also measured
KTVNGHDSPHKSGQNLLT	18.894 fold	83.969 fold	0.114 fold	0.040 fold	0.035 fold	0.000 fold	0.023 fold	–	–	–	–	–	–	–	–	–	–	–	–	–	–
KTINGHDSPHKSVQTHQT	7.519 fold	77.309 fold	0.237 fold	0.062 fold	0.116 fold	0.000 fold	0.000 fold	–	–	–	–	–	–	–	–	–	–	–	–	–	–
KTIIGGGSPHSKAHNQQT	65.492 fold	75.872 fold	0.000 fold	0.050 fold	0.235 fold	0.000 fold	0.000 fold	65.492 fold	0.000 fold	75.872 fold	0.050 fold	0.235 fold	0.000 fold	0.000 fold	–	–	–	–	–	–	–
KTINGSGSPHSKASPRQT	–	–	–	–	–	–	–	–	–	–	–	–	–	–	67.241 fold	50.227 fold	0.088 fold	0.005 fold	0.530 fold	1.761 fold	Fold Enrichment relative to AAV9, Muscle (NHP) ([1]; NHP muscle): 0.068 fold
KSINGHDSPHKSGQYQHT	14.485 fold	88.195 fold	0.000 fold	0.099 fold	0.149 fold	0.000 fold	0.000 fold	–	–	–	–	–	–	–	–	–	–	–	–	–	–
KTINGSGSPHSKAQMPNT	–	–	–	–	–	–	–	–	–	–	–	–	–	–	66.040 fold	52.408 fold	0.084 fold	0.036 fold	0.359 fold	0.057 fold	Fold Enrichment relative to AAV9, Muscle (NHP) ([1]; NHP muscle): 0.025 fold
KSINESGSPHSKAQNQQI	67.649 fold	113.833 fold	0.000 fold	0.000 fold	0.000 fold	0.000 fold	0.000 fold	67.649 fold	0.000 fold	113.833 fold	0.000 fold	0.000 fold	0.000 fold	0.000 fold	–	–	–	–	–	–	–
KTTNGHDSPHKSGQNQQG	10.555 fold	85.113 fold	0.000 fold	0.107 fold	0.017 fold	0.000 fold	0.000 fold	–	–	–	–	–	–	–	–	–	–	–	–	–	–
KTVNGSGSPHSKAQSLQT	–	–	–	–	–	–	–	–	–	–	–	–	–	–	69.033 fold	55.497 fold	0.000 fold	0.060 fold	0.143 fold	0.000 fold	Fold Enrichment relative to AAV9, Muscle (NHP) ([1]; NHP muscle): 0.000 fold
KEINGRGSPHSKAQNQQT	52.311 fold	134.390 fold	0.239 fold	0.000 fold	0.232 fold	0.000 fold	0.000 fold	52.311 fold	0.239 fold	134.390 fold	0.000 fold	0.232 fold	0.000 fold	0.000 fold	–	–	–	–	–	–	–
KTINGSGSPHSKTQNHQN	–	–	–	–	–	–	–	–	–	–	–	–	–	–	64.846 fold	55.551 fold	0.000 fold	0.048 fold	0.099 fold	0.000 fold	Fold Enrichment relative to AAV9, Muscle (NHP) ([1]; NHP muscle): 0.000 fold
KAINGSGSPHSKAQDQET	87.637 fold	84.080 fold	0.000 fold	0.000 fold	0.027 fold	0.194 fold	0.000 fold	87.637 fold	0.000 fold	84.080 fold	0.000 fold	0.027 fold	0.194 fold	0.000 fold	–	–	–	–	–	–	–
KTEKTSGSPHSKAQNQQT	101.467 fold	120.337 fold	0.000 fold	0.355 fold	0.119 fold	0.000 fold	0.000 fold	101.467 fold	0.000 fold	120.337 fold	0.355 fold	0.119 fold	0.000 fold	0.000 fold	–	–	–	–	–	–	–
KTINGSGSPHSKAQREMT	–	–	–	–	–	–	–	–	–	–	–	–	–	–	70.961 fold	51.076 fold	0.000 fold	24.900 fold	0.476 fold	1.564 fold	Fold Enrichment relative to AAV9, Muscle (NHP) ([1]; NHP muscle): 143.49 fold
